Experimental data: PubChem BioAssay (NCI)
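Each compound was tested at five concentrations against cells in 96-well plates for 48 hours. At the GI50, growth is halved. TGI: concentration producing complete growth inhibition.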

How the values were obtained:
Experiment in all cases: DTP human tumour cell line panel, 48 h
[1] = tested on: SK-MEL-2 melanoma
[2] = tested on: NCI-H23 lung
[3] = tested on: EKVX NSCLC
[4] = tested on: BT-549 breast
[5] = tested on: IGROV1 ovarian
[6] = tested on: SNB-19 CNS
[7] = tested on: NCI-H522 lung
[8] = tested on: MDA-MB-435
[9] = tested on: MOLT-4 leukemia
[10] = tested on: SR leukemia
[11] = tested on: ACHN renal
[12] = tested on: OVCAR-3 ovarian
[13] = tested on: KM12 colon
[14] = tested on: RXF 393 renal
[15] = tested on: A549 NSCLC
[16] = tested on: SK-OV-3 ovarian
[17] = tested on: COLO 205 colon
[18] = tested on: M14 melanoma
[19] = tested on: CAKI-1 renal
[20] = tested on: HOP-92 NSCLC
[21] = tested on: MALME-3M melanoma
[22] = tested on: HCT-116 colon
[23] = tested on: TK-10 renal
[24] = tested on: HOP-62 NSCLC
[25] = tested on: SN12C renal
[26] = tested on: NCI-H460 lung
[27] = tested on: OVCAR-8 ovarian
[28] = tested on: HCT-15 colon
[29] = tested on: MDA-MB-231 breast
[30] = tested on: CCRF-CEM leukemia
[31] = tested on: U251 CNS
[32] = tested on: DU-145 prostate
[33] = tested on: LOX IMVI melanoma
[34] = tested on: OVCAR-4 ovarian
[35] = tested on: K-562 leukemia
[36] = tested on: HS 578T breast
[37] = tested on: SF-268 CNS
[38] = tested on: UO-31 renal
[39] = tested on: A498 renal
[40] = tested on: T-47D breast
[41] = tested on: SNB-75 CNS
[42] = tested on: MCF7 breast
[43] = tested on: SK-MEL-5 melanoma
[44] = tested on: SF-295 CNS
[45] = tested on: MDA-MB-468 breast
[46] = tested on: SK-MEL-28 melanoma
[47] = tested on: OVCAR-5 ovarian
[48] = tested on: SF-539 CNS
[49] = tested on: HL-60(TB) leukemia
[50] = tested on: HCC-2998 colon
[51] = tested on: SW-620 colon
[52] = tested on: NCI-H226 lung
[53] = tested on: UACC-257 melanoma
[54] = tested on: UACC-62 melanoma
[55] = tested on: HT29 colon
[56] = tested on: RPMI-8226 leukemia
[57] = tested on: 786-0 renal
[58] = tested on: PC-3 prostate

Structure (SMILES): O=C(/C=C/c1ccc(Br)cc1)c1nc2ccccc2n1Cc1ccc(Br)cc1
- GI50 [1]: > 100 µM
- TGI [1]: > 100 µM
- GI50 [2]: > 100 µM
- TGI [2]: > 100 µM
- GI50 [3]: > 100 µM
- TGI [3]: > 100 µM
- GI50 [4]: 96 µM
- TGI [4]: > 100 µM
- GI50 [5]: > 100 µM
- TGI [5]: > 100 µM
- GI50 [6]: > 100 µM
- TGI [6]: > 100 µM
- GI50 [7]: > 100 µM
- TGI [7]: > 100 µM
- GI50 [8]: 35.6 µM
- TGI [8]: > 100 µM
- GI50 [9]: 17 µM
- TGI [9]: > 100 µM
- GI50 [10]: 28 µM
- TGI [10]: > 100 µM
- GI50 [11]: > 100 µM
- TGI [11]: > 100 µM
- GI50 [12]: 35 µM
- TGI [12]: > 100 µM
- GI50 [13]: 80.5 µM
- TGI [13]: > 100 µM
- GI50 [14]: 86.9 µM
- TGI [14]: > 100 µM
- GI50 [15]: > 100 µM
- TGI [15]: > 100 µM
- GI50 [16]: > 100 µM
- TGI [16]: > 100 µM
- GI50 [17]: > 100 µM
- TGI [17]: > 100 µM
- GI50 [18]: > 100 µM
- TGI [18]: > 100 µM
- GI50 [19]: 53 µM
- TGI [19]: > 100 µM
- GI50 [20]: 58.6 µM
- TGI [20]: > 100 µM
- GI50 [21]: > 100 µM
- TGI [21]: > 100 µM
- GI50 [22]: 56.6 µM
- TGI [22]: > 100 µM
- GI50 [23]: > 100 µM
- TGI [23]: > 100 µM
- GI50 [24]: > 100 µM
- TGI [24]: > 100 µM
- GI50 [25]: > 100 µM
- TGI [25]: > 100 µM
- GI50 [26]: 59.3 µM
- TGI [26]: > 100 µM
- GI50 [27]: 97.7 µM
- TGI [27]: > 100 µM
- GI50 [28]: 40.5 µM
- TGI [28]: > 100 µM
- GI50 [29]: 99.1 µM
- TGI [29]: > 100 µM
- GI50 [30]: 18.2 µM
- TGI [30]: > 100 µM
- GI50 [31]: 42.6 µM
- TGI [31]: > 100 µM
- GI50 [32]: > 100 µM
- TGI [32]: > 100 µM
- GI50 [33]: 30.9 µM
- TGI [33]: > 100 µM
- GI50 [34]: > 100 µM
- TGI [34]: > 100 µM
- GI50 [35]: 39.5 µM
- TGI [35]: > 100 µM
- GI50 [36]: > 100 µM
- TGI [36]: > 100 µM
- GI50 [37]: > 100 µM
- TGI [37]: > 100 µM
- GI50 [38]: 45.9 µM
- TGI [38]: > 100 µM
- GI50 [39]: > 100 µM
- TGI [39]: > 100 µM
- GI50 [40]: 24.7 µM
- TGI [40]: > 100 µM
- GI50 [41]: > 100 µM
- TGI [41]: > 100 µM
- GI50 [42]: 24.1 µM
- TGI [42]: > 100 µM
- GI50 [43]: > 100 µM
- TGI [43]: > 100 µM
- GI50 [44]: > 100 µM
- TGI [44]: > 100 µM
- GI50 [45]: 35.9 µM
- TGI [45]: > 100 µM
- GI50 [46]: > 100 µM
- TGI [46]: > 100 µM
- GI50 [47]: > 100 µM
- TGI [47]: > 100 µM
- GI50 [48]: > 100 µM
- TGI [48]: > 100 µM
- GI50 [49]: 24.1 µM
- TGI [49]: > 100 µM
- GI50 [50]: > 100 µM
- TGI [50]: > 100 µM
- GI50 [51]: 30 µM
- TGI [51]: > 100 µM
- GI50 [52]: > 100 µM
- TGI [52]: > 100 µM
- GI50 [53]: > 100 µM
- TGI [53]: > 100 µM
- GI50 [54]: > 100 µM
- TGI [54]: > 100 µM
- GI50 [55]: 68.7 µM
- TGI [55]: > 100 µM
- GI50 [56]: 25.2 µM
- TGI [56]: > 100 µM
- GI50 [57]: > 100 µM
- TGI [57]: > 100 µM
- GI50 [58]: 58.6 µM
- TGI [58]: > 100 µM

Structure (SMILES): Cc1ccc(C(=O)Nc2cc(-n3ccnc3C)cc(C(F)(F)F)c2)cc1C#Cc1cnc2cccnn12
- GI50 [1]: 0.84 µM
- TGI [1]: 4.62 µM
- GI50 [2]: 1.53 µM
- TGI [2]: 12.2 µM
- GI50 [3]: 6.85 µM
- TGI [3]: > 29.3 µM
- GI50 [4]: 3.4 µM
- TGI [4]: 8.39 µM
- GI50 [5]: 2.62 µM
- TGI [5]: 23.2 µM
- GI50 [6]: 6.09 µM
- TGI [6]: 19.1 µM
- GI50 [7]: 2.74 µM
- TGI [7]: 9.44 µM
- GI50 [8]: 3.07 µM
- TGI [8]: 14.7 µM
- GI50 [9]: 2.42 µM
- TGI [9]: > 29.3 µM
- GI50 [10]: 2.44 µM
- TGI [10]: > 29.3 µM
- GI50 [11]: 2.49 µM
- TGI [11]: 6.69 µM
- GI50 [12]: 9.25 µM
- TGI [12]: 29.1 µM
- GI50 [13]: 0.131 µM
- TGI [13]: 24.6 µM
- GI50 [14]: 1.64 µM
- TGI [14]: 6.11 µM
- GI50 [15]: 3.01 µM
- TGI [15]: 13.5 µM
- GI50 [16]: 5.64 µM
- TGI [16]: 14.9 µM
- GI50 [17]: 1.7 µM
- TGI [17]: 15.6 µM
- GI50 [18]: 0.924 µM
- TGI [18]: 24.4 µM
- GI50 [19]: 1.76 µM
- TGI [19]: 6.52 µM
- GI50 [20]: 0.918 µM
- TGI [20]: 4.61 µM
- GI50 [21]: 0.25 µM
- TGI [21]: 1.73 µM
- GI50 [22]: 1.31 µM
- TGI [22]: 8.25 µM
- GI50 [23]: 4.27 µM
- TGI [23]: 14 µM
- GI50 [24]: 1.88 µM
- TGI [24]: 9.67 µM
- GI50 [25]: 0.948 µM
- TGI [25]: 5.97 µM
- GI50 [26]: 3.68 µM
- TGI [26]: 10.8 µM
- GI50 [27]: 3.49 µM
- TGI [27]: 11.1 µM
- GI50 [28]: 2.44 µM
- TGI [28]: > 29.3 µM
- GI50 [29]: 0.364 µM
- TGI [29]: 3.2 µM
- GI50 [30]: 3.45 µM
- TGI [30]: > 29.3 µM
- GI50 [31]: 4.23 µM
- TGI [31]: 13.4 µM
- GI50 [32]: 5.23 µM
- TGI [32]: 23.1 µM
- GI50 [33]: 0.702 µM
- TGI [33]: 4.35 µM
- GI50 [34]: 4.51 µM
- TGI [34]: 16.3 µM
- GI50 [35]: 0.00293 µM
- TGI [35]: > 29.3 µM
- GI50 [36]: 1.12 µM
- TGI [36]: 7.31 µM
- GI50 [37]: 4 µM
- TGI [37]: 16.4 µM
- GI50 [38]: 1.13 µM
- TGI [38]: 6.17 µM
- GI50 [39]: 3.26 µM
- TGI [39]: 9.74 µM
- GI50 [40]: 4.24 µM
- TGI [40]: 12.6 µM
- GI50 [41]: 2.98 µM
- TGI [41]: 8.74 µM
- GI50 [42]: 5.06 µM
- TGI [42]: > 29.3 µM
- GI50 [43]: 3.33 µM
- TGI [43]: 8.81 µM
- GI50 [44]: 3.13 µM
- TGI [44]: 8.7 µM
- GI50 [45]: 6.89 µM
- TGI [45]: 19.7 µM
- GI50 [46]: 0.898 µM
- TGI [46]: 4.47 µM
- GI50 [47]: 1.27 µM
- TGI [47]: 8.91 µM
- GI50 [48]: 0.916 µM
- TGI [48]: 4 µM
- GI50 [49]: 0.257 µM
- TGI [49]: > 29.3 µM
- GI50 [50]: 2.55 µM
- TGI [50]: 11 µM
- GI50 [51]: 2.43 µM
- TGI [51]: > 29.3 µM
- GI50 [52]: 1.23 µM
- TGI [52]: 6.47 µM
- GI50 [53]: 1.78 µM
- TGI [53]: 8.74 µM
- GI50 [54]: 0.756 µM
- TGI [54]: 4.13 µM
- GI50 [55]: 0.848 µM
- TGI [55]: 4.94 µM
- GI50 [56]: 1.27 µM
- TGI [56]: 15 µM
- GI50 [57]: 4.02 µM
- TGI [57]: 11.9 µM
- GI50 [58]: 4.51 µM
- TGI [58]: 15.3 µM
